Measured values taken from ChEMBL document CHEMBL3351729, “Discovery of indanone derivatives as multi-target-directed ligands against Alzheimer's disease” (Eur J Med Chem, 2014).
pIC50: −log10 of the molar value. Active and inactive are the calls of the source. The calls are words filed in the database; no cut-off is given here.

Experiments:
[1] = molecular target: Amyloid-beta precursor protein (Homo sapiens) (UniProt P05067); assay: Inhibition of amyloid beta (1-42) self-mediated aggregation (unknown origin) at 20 uM after 48 hrs by thioflavin T fluorescence method
Butyrylcholinesterase = Butyrylcholinesterase (Equus caballus, UniProt Q9N1N9)
Description: Inhibition of equine BChE preincubated for 15 mins by Ellman's method

Acetylcholinesterase [2] = molecular target: Acetylcholinesterase (Electrophorus electricus, UniProt O42275); assay: Inhibition of electric eel AChE preincubated for 15 mins by Ellman's method
Acetylcholinesterase [3] = molecular target: Acetylcholinesterase (Homo sapiens, UniProt P22303); assay: Inhibition of human erythrocyte AChE preincubated for 15 mins by Ellman's method
[4] = molecular target: Amyloid-beta precursor protein (Homo sapiens) (UniProt P05067); assay: Disaggregation of amyloid beta (1-42) fibrils (unknown origin) at 20 uM after 24 hrs by transmission electron microscopy
[5] = molecular target: Amyloid-beta precursor protein (Homo sapiens) (UniProt P05067); assay: Disaggregation of amyloid beta (1-42) fibrils (unknown origin) at 20 uM after 24 hrs by thioflavin T fluorescence method
[6] = molecular target: Amyloid-beta precursor protein (Homo sapiens) (UniProt P05067); assay: Inhibition of amyloid beta (1-42) (unknown origin) fibril formation at 20 uM after 24 hrs by transmission electron microscopy

Butyrylcholinesterase, sequence (Q9N1N9 whole entry): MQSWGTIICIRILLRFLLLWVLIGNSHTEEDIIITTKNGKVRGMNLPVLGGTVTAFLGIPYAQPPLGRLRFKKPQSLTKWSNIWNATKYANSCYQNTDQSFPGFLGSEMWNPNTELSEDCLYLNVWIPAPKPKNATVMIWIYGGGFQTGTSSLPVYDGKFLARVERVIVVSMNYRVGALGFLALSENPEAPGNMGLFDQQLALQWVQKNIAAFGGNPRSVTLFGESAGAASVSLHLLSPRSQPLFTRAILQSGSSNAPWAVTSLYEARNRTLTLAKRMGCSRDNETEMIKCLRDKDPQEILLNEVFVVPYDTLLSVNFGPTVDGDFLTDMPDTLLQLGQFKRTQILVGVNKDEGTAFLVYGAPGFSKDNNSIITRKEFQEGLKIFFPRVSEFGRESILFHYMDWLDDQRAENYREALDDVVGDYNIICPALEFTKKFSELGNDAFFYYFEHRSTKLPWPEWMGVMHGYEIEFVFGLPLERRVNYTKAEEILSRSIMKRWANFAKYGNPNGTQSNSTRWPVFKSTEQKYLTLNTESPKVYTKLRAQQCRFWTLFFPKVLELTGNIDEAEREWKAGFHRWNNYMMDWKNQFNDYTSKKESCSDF
Amyloid-beta precursor protein (Homo sapiens), sequence (P05067 whole entry): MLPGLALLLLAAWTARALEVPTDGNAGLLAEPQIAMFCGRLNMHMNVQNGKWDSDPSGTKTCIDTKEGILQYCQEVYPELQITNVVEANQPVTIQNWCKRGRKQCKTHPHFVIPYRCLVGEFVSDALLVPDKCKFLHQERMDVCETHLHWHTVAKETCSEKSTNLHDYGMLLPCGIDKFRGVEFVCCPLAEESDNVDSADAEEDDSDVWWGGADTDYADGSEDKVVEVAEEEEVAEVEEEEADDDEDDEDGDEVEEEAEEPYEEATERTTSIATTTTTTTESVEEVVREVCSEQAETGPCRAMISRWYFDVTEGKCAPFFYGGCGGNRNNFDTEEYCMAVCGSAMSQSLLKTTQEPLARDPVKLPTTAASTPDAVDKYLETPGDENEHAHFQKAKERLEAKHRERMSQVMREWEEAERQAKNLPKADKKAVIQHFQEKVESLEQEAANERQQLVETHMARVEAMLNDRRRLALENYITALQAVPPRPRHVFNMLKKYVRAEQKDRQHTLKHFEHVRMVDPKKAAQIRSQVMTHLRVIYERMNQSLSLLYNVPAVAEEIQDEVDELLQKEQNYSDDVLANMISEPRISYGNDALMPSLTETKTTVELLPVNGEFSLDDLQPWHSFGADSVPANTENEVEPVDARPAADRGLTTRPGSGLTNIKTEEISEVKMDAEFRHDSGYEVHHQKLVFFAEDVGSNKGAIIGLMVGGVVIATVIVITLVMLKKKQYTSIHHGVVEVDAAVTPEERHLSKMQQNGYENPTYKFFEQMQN
Acetylcholinesterase (Homo sapiens, UniProt P22303), sequence (P22303 whole entry): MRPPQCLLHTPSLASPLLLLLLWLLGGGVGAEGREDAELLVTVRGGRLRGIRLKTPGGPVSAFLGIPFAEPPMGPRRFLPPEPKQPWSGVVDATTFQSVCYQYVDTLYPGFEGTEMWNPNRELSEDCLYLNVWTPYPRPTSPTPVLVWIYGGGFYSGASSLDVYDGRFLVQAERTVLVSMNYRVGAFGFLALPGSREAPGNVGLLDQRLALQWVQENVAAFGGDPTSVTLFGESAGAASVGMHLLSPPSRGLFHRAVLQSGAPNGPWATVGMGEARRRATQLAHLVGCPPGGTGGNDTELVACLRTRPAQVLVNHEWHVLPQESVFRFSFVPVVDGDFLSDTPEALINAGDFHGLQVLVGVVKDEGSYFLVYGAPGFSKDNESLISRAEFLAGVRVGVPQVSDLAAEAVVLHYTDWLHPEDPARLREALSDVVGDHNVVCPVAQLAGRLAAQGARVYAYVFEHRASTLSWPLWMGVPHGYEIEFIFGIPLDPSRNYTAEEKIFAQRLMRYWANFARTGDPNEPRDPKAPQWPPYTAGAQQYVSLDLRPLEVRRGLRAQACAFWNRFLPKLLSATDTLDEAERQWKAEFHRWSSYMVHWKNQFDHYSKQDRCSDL
Acetylcholinesterase (Electrophorus electricus, UniProt O42275), sequence (O42275 whole entry): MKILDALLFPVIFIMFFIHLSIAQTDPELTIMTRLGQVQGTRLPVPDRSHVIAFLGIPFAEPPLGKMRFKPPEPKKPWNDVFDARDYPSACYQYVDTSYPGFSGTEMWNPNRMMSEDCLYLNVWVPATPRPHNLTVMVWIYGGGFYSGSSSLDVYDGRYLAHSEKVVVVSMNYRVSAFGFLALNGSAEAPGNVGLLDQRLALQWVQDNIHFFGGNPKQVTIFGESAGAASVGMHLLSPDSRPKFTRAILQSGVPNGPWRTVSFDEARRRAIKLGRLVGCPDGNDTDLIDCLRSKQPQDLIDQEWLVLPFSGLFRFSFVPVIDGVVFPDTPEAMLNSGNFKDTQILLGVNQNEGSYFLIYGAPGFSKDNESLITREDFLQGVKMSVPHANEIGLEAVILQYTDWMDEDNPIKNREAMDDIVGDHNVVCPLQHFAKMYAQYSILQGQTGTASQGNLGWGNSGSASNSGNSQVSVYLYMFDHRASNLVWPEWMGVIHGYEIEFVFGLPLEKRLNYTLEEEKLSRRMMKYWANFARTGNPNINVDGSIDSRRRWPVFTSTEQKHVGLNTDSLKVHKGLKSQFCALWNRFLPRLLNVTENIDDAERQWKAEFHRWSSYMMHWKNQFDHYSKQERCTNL

Compound | inhibition [1] | pIC50 (Butyrylcholinesterase) | pIC50 (Acetylcholinesterase [2]) | pIC50 (Acetylcholinesterase [3]) | Activity [4] | Activity [5] [%] | inhibition [6]
COc1ccc(/C=C2\Cc3cc(OC)c(OCCN4CCCCC4)cc3C2=O)cc1 | inactive | 5.49 | 7.83 |  |  |  | 
COc1cc2c(cc1OCCCCNC1CCCCC1)C(=O)/C(=C/c1ccc(N(C)C)cc1)C2 |  | 5.95 | 5.04 |  |  |  | 
COc1cc2c(cc1OCCCCCN1CCCCC1)C(=O)/C(=C/c1ccc(N(C)C)cc1)C2 |  | 5.61 | 5.99 |  |  |  | 
CNc1ccc(/C=C2\Cc3cc(OC)c(OCCN4CCCCC4)cc3C2=O)cc1 |  | 5.79 | 7.77 | 6.52 |  |  | 
COc1cc2c(cc1OCCN1CCCCC1)C(=O)/C(=C/c1ccc(N(C)C)cc1)C2 |  | 5.83 | 7.78 | 6.55 |  |  | 
CCN(CC)c1ccc(/C=C2\Cc3cc(OC)c(OCCCN4CCCCC4)cc3C2=O)cc1 |  | 5.55 | 6.43 |  |  |  | 
COc1cc2c(cc1OCCCNC1CCCCC1)C(=O)/C(=C/c1ccc(N(C)C)cc1)C2 |  | 5.88 | 5.81 |  |  |  | 
CCN(CC)c1ccc(/C=C2\Cc3cc(OC)c(OCCCCCN4CCCCC4)cc3C2=O)cc1 |  | 5.55 | 5.24 |  |  |  | 
COc1cc2c(cc1OCCNC1CCCCC1)C(=O)/C(=C/c1ccc(N(C)C)cc1)C2 | 84.3% | 6.44 | 6.99 |  |  |  | 
CCCN(CCC)c1ccc(/C=C2\Cc3cc(OC)c(OCCN4CCCCC4)cc3C2=O)cc1 |  | 5.75 | 7.84 | 6.02 |  |  | 
COc1cc2c(cc1OCCCN1CCCCC1)C(=O)/C(=C/c1ccc(N(C)C)cc1)C2 |  | 5.84 | 6.48 |  |  |  | 
CCCN(C)c1ccc(/C=C2\Cc3cc(OC)c(OCCN4CCCCC4)cc3C2=O)cc1 | 83.8% | 5.85 | 7.73 | 6.41 | Active | 73.8 | Active
CCN(CC)c1ccc(/C=C2\Cc3cc(OC)c(OCCN4CCCCC4)cc3C2=O)cc1 | 85.5% | 5.86 | 7.83 | 6.27 | Active | 65 | Active
CCN(C)c1ccc(/C=C2\Cc3cc(OC)c(OCCN4CCCCC4)cc3C2=O)cc1 | 85.2% | 5.90 | 7.59 | 6.37 |  |  | 
